Laboratory results taken from US7138361B2, “Herbicidal heterocycles” (E. I. du Pont de Nemours and Company, priority 2000, dated 2006).

Tests used:
Type in all cases: in vivo
[1] = system: Surinam grass (Brachiaria decumbens); test: Test B postemergence
Method in brief: (§1)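 Greenhouse test: chemicals are formulated in a surfactant-containing non-phytotoxic solvent and applied either preemergence to planted seeds or postemergence to plants 2 to 18 cm tall. Response is rated visually versus controls after 13 to 15 days, 0 meaning no effect and 100 complete control.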

[2] = system: barnyardgrass (Echinochloa crus-galli); test: Test B postemergence
Method in brief: as §1

[3] = system: blackgrass (Alopecurus myosuroides); test: Test B postemergence
Method in brief: as §1

[4] = system: cocklebur (Xanthium strumarium); test: Test B postemergence
Method in brief: as §1

[5] = system: corn (Zea mays); test: Test B postemergence
Method in brief: as §1

[6] = system: crabgrass (Digitaria sanguinalis); test: Test B postemergence
Method in brief: as §1

[7] = system: giant foxtail (Setaria faberii); test: Test B postemergence
Method in brief: as §1

[8] = system: lambsquarters (Chenopodium album); test: Test B postemergence
Method in brief: as §1

[9] = system: morning glory (Ipomoea hederacea); test: Test B postemergence
Method in brief: as §1

[10] = system: pigweed (Amaranthus retroflexus); test: Test B postemergence
Method in brief: as §1

[11] = system: velvetleaf (Abutilon theophrasti); test: Test B postemergence
Method in brief: as §1

[12] = system: wheat (Triticum aestivum); test: Test B postemergence
Method in brief: as §1

[13] = system: wild oat (Avena fatua); test: Test B postemergence
Method in brief: as §1

[14] = system: Surinam grass (Brachiaria decumbens); test: Test B preemergence
Method in brief: as §1

[15] = system: barnyardgrass (Echinochloa crus-galli); test: Test B preemergence
Method in brief: as §1

[16] = system: cocklebur (Xanthium strumarium); test: Test B preemergence
Method in brief: as §1

[17] = system: corn (Zea mays); test: Test B preemergence
Method in brief: as §1

[18] = system: crabgrass (Digitaria sanguinalis); test: Test B preemergence
Method in brief: as §1

[19] = system: giant foxtail (Setaria faberii); test: Test B preemergence
Method in brief: as §1

[20] = system: lambsquarters (Chenopodium album); test: Test B preemergence
Method in brief: as §1

[21] = system: morning glory (Ipomoea hederacea); test: Test B preemergence
Method in brief: as §1

[22] = system: pigweed (Amaranthus retroflexus); test: Test B preemergence
Method in brief: as §1

[23] = system: rice (Oryza saliva); test: Test B preemergence
Method in brief: as §1

[24] = system: velvetleaf (Abutilon theophrasti); test: Test B preemergence
Method in brief: as §1

[25] = system: barnyardgrass (Echinochloa crus-galli); test: Test C flooded paddy test; settings: for Barnyardgrass plant response rating: Flooded Paddy, scale 0 to 100, 0 no effect, 100 complete control; for Plant response rating, Barnyardgrass: flooded paddy test, scale 0 to 100 (0 no effect, 100 complete control)
Method in brief: (§2)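 Visual injury score, 0 (no effect) to 100 (complete control), relative to controls. Paddy plants treated at 2-leaf stage; greenhouse hold 12–14 d before rating.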

[26] = system: duck salad (Heteranthera limosa); test: Test C flooded paddy test; settings: for Ducksalad plant response rating: Flooded Paddy, scale 0 to 100, 0 no effect, 100 complete control; for Plant response rating, Ducksalad: flooded paddy test, scale 0 to 100 (0 no effect, 100 complete control)
Method in brief: as §2

[27] = system: rice (Oryza saliva); test: Test C flooded paddy test; settings: for Rice plant response rating: Flooded Paddy, scale 0 to 100, 0 no effect, 100 complete control; for Plant response rating, Rice: flooded paddy test, scale 0 to 100 (0 no effect, 100 complete control)
Method in brief: as §2

[28] = system: smallflower flatsedge (Cyperus difformis); test: Test C flooded paddy test; settings: for Flatsedge plant response rating: Flooded Paddy, scale 0 to 100, 0 no effect, 100 complete control; for Plant response rating, Flatsedge: flooded paddy test, scale 0 to 100 (0 no effect, 100 complete control)
Method in brief: as §2

[29] = Rate 125 g/ha, scale 0 to 100, 0 no effect, 100 complete control
[30] = Rate 500 g/ha, scale 0 to 100, 0 is no effect, 100 is complete control, 13 to 15 days
[31] = Preemergence, Rate 500 g/ha, scale 0 to 100, 0 no effect, 100 complete control
[32] = preemergence, Rate 125 g/ha, scale of 0 to 100 where 0 is no effect and 100 is complete control, 13 to 15 days

CCCCC(CCCC)c1ccn(C2SCN(c3cccc(OC(F)(F)F)c3)C2=O)n1 (stereo not shown) [Compound 115]
20: Plant response rating, Surinam grass [1, 29] | Plant response rating, Cocklebur [4, 29] | Plant response rating, Corn [5, 29] | Plant response rating, Corn [5, 30] | Plant response rating, Crabgrass [6, 29]
100: Plant response rating, Surinam grass [1, 30]
40: Plant response rating, Wheat [12, 29]
60: Plant response rating, Pigweed [10, 30] | Plant response rating, Wild Oat [13, 30]
0: Plant response rating, Barnyardgrass [2, 29] | Plant response rating, Barnyardgrass [2, 30] | Plant response rating, Blackgrass [3, 29] | Plant response rating, Blackgrass [3, 30] | Plant response rating, Foxtail, Giant [7, 29] | Plant response rating, Foxtail, Giant [7, 30] | Plant response rating, Lambsquarters [8, 29] | Plant response rating, Lambsquarters [8, 30] | Plant response rating, Morningglory [9, 29] | Plant response rating, Morningglory [9, 30] | Plant response rating, Velvetleaf [11, 29] | Plant response rating, Velvetleaf [11, 30] | Plant response rating, Surinam grass [14, 31] | Plant response rating, Surinam grass [14, 32] | Plant response rating, Barnyardgrass [15, 31] | Plant response rating, Barnyardgrass [15, 32] | Plant response rating, Cocklebur [16, 31] | Plant response rating, Cocklebur [16, 32] | Plant response rating, Corn [17, 31] | Plant response rating, Corn [17, 32] | Plant response rating, Crabgrass [18, 31] | Plant response rating, Crabgrass [18, 32] | Plant response rating, Foxtail, Giant [19, 31] | Plant response rating, Foxtail, Giant [19, 32] | Plant response rating, Lambsquarters [20, 31] | Plant response rating, Lambsquarters [20, 32] | Plant response rating, Morningglory [21, 31] | Plant response rating, Morningglory [21, 32] | Plant response rating, Pigweed [22, 31] | Plant response rating, Pigweed [22, 32] | Plant response rating, Rice [23, 31] | Plant response rating, Rice [23, 32] | Plant response rating, Velvetleaf [24, 31] | Plant response rating, Velvetleaf [24, 32] | Barnyardgrass plant response rating ([25]; Rate 250 g/ha) | Barnyardgrass plant response rating ([25]; Rate 500 g/ha) | Plant response rating, Barnyardgrass ([25]; Rate 62 g/ha) | Plant response rating, Barnyardgrass ([25]; Rate 125 g/ha) | Ducksalad plant response rating ([26]; Rate 250 g/ha) | Ducksalad plant response rating ([26]; Rate 500 g/ha) | Plant response rating, Ducksalad ([26]; Rate 62 g/ha) | Plant response rating, Ducksalad ([26]; Rate 125 g/ha) | Rice plant response rating ([27]; Rate 250 g/ha) | Rice plant response rating ([27]; Rate 500 g/ha) | Plant response rating, Rice ([27]; Rate 62 g/ha) | Plant response rating, Rice ([27]; Rate 125 g/ha) | Flatsedge plant response rating ([28]; Rate 250 g/ha) | Flatsedge plant response rating ([28]; Rate 500 g/ha) | Plant response rating, Flatsedge ([28]; Rate 62 g/ha) | Plant response rating, Flatsedge ([28]; Rate 125 g/ha)
30: Plant response rating, Crabgrass [6, 30] | Plant response rating, Wild Oat [13, 29]
50: Plant response rating, Pigweed [10, 29] | Plant response rating, Wheat [12, 30]
70: Plant response rating, Cocklebur [4, 30]
